Assay results published in article PMC12040169 (PLOS Biology, 2025).

Test: in vitro
Conditions: human, hela cells, % viability

Compound	viability at 28.5 h, 10 µM [%]
CN(C(=S)NCc1ccccc1)C1CC[C@@]2(c3ccc(F)cc3)CCN(C)[C@H]2C1 (stereo partly shown) [CBK003500C]	90.1
COC(=O)c1sccc1S(=O)(=O)n1ccc2ccc(Br)cc21 [CBK003528]	92.6
CC(C)(C)OC(=O)N1CCN(c2ccnc(N)n2)CC1 [CBK003529]	99.4
Cn1c(=O)c2c(O)cc(=O)oc2c2ccccc21 [CBK003546]	93.3
Cc1cc(Oc2ccccc2)nc(NCc2ccccc2)n1 [CBK003557]	99.1
Oc1cc(C(F)(F)F)nc(NCc2ccncc2)n1 [CBK003563]	85.5
OC(COc1cccc2c1CCCC2)CN1CCC(O)(c2ccccc2)CC1 (stereo not shown) [CBK003585]	87.3
CCNC(=S)NC1CC[C@@]2(C3=CC=CC4C=CC=CC34)CCN(C)[C@H]2C1 (stereo partly shown) [CBK003596C]	91.7
CC(C)CC(=O)N1CCN(C(=O)c2ccc(F)cc2)CC1 [CBK003603]	91.1
COc1cc(C(=O)N2CCN(C(=O)CC(C)C)CC2)cc(OC)c1OC [CBK003604]	99.2
CCCCNC(=S)N[C@H]1CC[C@@]2(C3=CC=CC4C=CC=CC34)CCN(C)[C@H]2C1 (stereo partly shown) [CBK003610C]	101
Nn1c(-c2cccs2)nc2ccccc2c1=O [CBK003650]	99.2
C=C(C)CNc1ccccc1C(=O)OC [CBK003656C]	89.1
C[C@H](NC(=O)OC1CC[C@@]2(c3ccccc3)CCN(C)[C@H]2C1)c1cccc2ccccc12 (stereo partly shown) [CBK003664]	111
COc1ccc(NC(=O)C2CCCN2c2nc(O)cc(C(F)(F)F)n2)cc1 (stereo not shown) [CBK003704]	77
CC(=O)N1CC(C)(C)c2ccccc21 [CBK003715]	99.6
CC(C)CNCC1CC(C(=O)N2CCC(Cc3ccccc3)CC2)=NO1 (stereo not shown) [CBK003718C]	89.7
CC(NC(=O)n1ccc2c(N3CCNCC3)cccc21)c1ccccc1 (stereo not shown) [CBK003729C]	90.7
O=C(Nc1c(F)cccc1F)n1ccc2c(N3CCNCC3)cccc21 [CBK003745C]	89.5
COc1ccc([C@@]23CCC(NC(=O)CCc4cccnc4)C[C@@H]2N(C)CC3)cc1OC (stereo partly shown) [CBK003770]	92.8
Nc1nc(CCN2CCOCC2=O)cs1 [CBK003792]	85.8
COc1cc2c(cc1OC)CN(CC(O)COc1cccc3c1CCCC3)CC2 (stereo not shown) [CBK003828]	113
OC(CNCCc1c[nH]c2ccccc12)COc1cccc2c1CCCC2 (stereo not shown) [CBK003831]	93.9
O=c1cc(-c2ccccc2)nc(N2CCOCC2)[nH]1 [CBK003840]	93.9

Compound	viability at 28.5 h, 10 µM [%]
CN1CC(CO)Oc2ccccc21 (stereo not shown) [CBK003872C]	104
CC(C)(C)OC(=O)N1CCN(c2ccccc2O)CC1 [CBK003878]	94.5
Clc1nc2ccccc2nc1N1CCNCC1 [CBK003880]	96
Clc1ncccc1OCCOc1ccccc1 [CBK003888]	87.2
NC1CCN(c2nccnc2OCCOc2cccnc2)CC1 [CBK003889F]	82.3
COc1cccc(CC2(C#N)CC2)c1 [CBK003907]	87.5
Cc1nc(Nc2ccc(Cl)cc2)nc(Oc2ccccc2)n1 [CBK003915]	101
O=C(NC1CCCC1)C1CCCN1c1nc(O)cc(C(F)(F)F)n1 (stereo not shown) [CBK003927]	83.5
CCCCc1cc(=O)[nH]c(NCc2ccc(C(F)(F)F)cc2)n1 [CBK003946]	92.5
COc1ccc(NC(=O)C2CCCN2c2nc(O)cc(C(F)(F)F)n2)c(OC)c1 (stereo not shown) [CBK003951]	94.9
FC(F)(F)c1ccc(N2CCNCC2)nc1OCc1ccccc1COc1ccccc1 [CBK003965A]	91.9
CCSc1nc(N2CCNC[C@@H]2C)ccc1C(F)(F)F [CBK003986A]	96.1
C[C@@H]1CN(c2ccc(C(F)(F)F)c(OCc3ccccc3)n2)CCN1 [CBK003987A]	94
CCOc1ccsc1C(=O)Nc1cc(C)ccn1 [CBK004029]	88.3
Cc1ccnc(NC(=O)c2ccccc2)c1 [CBK004031]	90.6
CC(C)(C)OC(=O)N1CCC(Oc2ccc(CN)cc2)CC1 [CBK004131]	81.7
Cc1nc2ccccc2c(=O)n1CC(N)=O [CBK004145]	89.8
Cc1ccc(S(N)(=O)=O)cc1NC(=O)c1ccco1 [CBK004204]	93.7
O=C(Nc1cc(N2CCNCC2)ncn1)c1cnc2ccccc2c1 [CBK004209T]	80.5
O=C(CCOc1ccccc1)Nc1cc(N2CCNCC2)ncn1 [CBK004225T]	98.6
O=C(Nc1cncc(N2CCNCC2)n1)c1coc2c1C(=O)CCC2 [CBK004229T]	96.8
O=C(Nc1nccc(N2CCNCC2)n1)c1cccs1 [CBK004305T]	77.7
O=C1NC(c2ccccc2)Cc2onc(-c3ccccc3)c21 (stereo not shown) [CBK004409]	90.9
Cc1cc(Cl)cc(C)c1NS(=O)(=O)c1ccc(N2CCCNCC2)c2ccccc12 [CBK004433C]	97.2

Compound	viability at 28.5 h, 10 µM [%]
COC(=O)c1sccc1NS(=O)(=O)c1cc(F)c(Br)cc1F [CBK004492]	103
COC(=O)c1sccc1NS(=O)(=O)c1ccc(C(F)(F)F)cc1[N+](=O)[O-] [CBK004510]	92.9
Cc1ccc(S(=O)(=O)Nc2ccsc2C(=O)Nc2ccc(F)cc2)cc1 [CBK004571]	91
Cc1ccc(S(=O)(=O)Nc2ccsc2C(=O)N2CCOCC2)cc1[N+](=O)[O-] [CBK004612]	81.7
CCOC(=O)c1c(NS(=O)(=O)Cc2ccccc2[N+](=O)[O-])sc2c1CCCC2 [CBK004651]	95.8
CCOC(=O)CSc1nnc(NS(=O)(=O)c2cccc(Cl)c2C)s1 [CBK004669]	104
COC(=O)c1nc(Cl)c(Cl)nc1NS(=O)(=O)c1cccc(Cl)c1C [CBK004709]	91.8
CCCC(=O)Nc1cccnc1N1CCNCC1 [CBK004732T]	94
CCC#CC(=O)Nc1ccc(N2CCNCC2)nc1 [CBK004746T]	101
O=C(Nc1ccc(N2CCNCC2)nc1)C1CCCO1 (stereo not shown) [CBK004748T]	85.7
O=C(Nc1ccccc1N1CCNCC1)C1CCC1 [CBK004755T]	90.9
O=C(Nc1cccc(N2CCNCC2)c1)C1CCCO1 (stereo not shown) [CBK004768T]	93.4
COCCC(=O)Nc1cccc(N2CCNCC2)c1 [CBK004769T]	89.9
CCOC(=O)NC(=O)c1cn(N2CCOCC2)c(=O)[nH]c1=O [CBK004845]	104
CC(C)(C)C(=O)Nc1nnc(SCC(=O)N2CCc3ccccc32)s1 [CBK004889]	83.5
C[C@@H](NC(=O)N(Cc1ccc([N+](=O)[O-])cc1)CC(C)(C)N)c1cccc2ccccc12 [CBK004921]	102
CC(C)(N)CN(Cc1ccc(Cl)cc1)C(=O)Nc1ccccc1-c1ccccc1 [CBK004924]	105
CN(C)C(=O)n1cc(Cl)c(-c2ccccc2)n1 [CBK004985]	97
S=C(NCC1CCN(C(=S)NC2CCCCC2)CC1)NC1CCCCC1 [CBK004987]	87.7
CC1CN(C(=S)Nc2ccc(NC(=S)N3CC(C)OC(C)C3)cc2)CC(C)O1 (stereo not shown) [CBK004991]	78.9
CC1CN(C(=S)Nc2ccc3ccccc3c2)CC(C)O1 (stereo not shown) [CBK004993]	102
COc1cc(Cc2c(OCCN(C)C)nc3ccccn3c2=O)cc(OC)c1OC [CBK005004C]	99.9
CCN(CC)S(=O)(=O)c1cc(S(=O)(=O)N(CC)CC)c2cccc3c2c1NC(=O)O3 [CBK005022]	85.3
Cc1cn(C(C)(C)C(=O)N2CCOCC2)nc1-c1ccccc1Cl [CBK005206]	85.9

Compound	viability at 28.5 h, 10 µM [%]
Cc1ccc(NS(=O)(=O)N(C)C)c(C)c1 [CBK005246]	122
c1ccc2c(c1)OCc1nnc(CCN3CCCCC3)n1-2 [CBK005285]	95.2
O=C1NC(=O)C(c2ccccc2)(c2ccccc2)N1 [CBK005292]	108
CCOC(=O)N1CCCC(=O)c2c(C(=O)O)cn(C)c21 [CBK005301]	86.4
CC(C)CC1C(=O)NCCN1Cc1ccccc1 (stereo not shown) [CBK005336]	92
COc1ccc(OC)c(NS(=O)(=O)N(C)C)c1 [CBK005362]	94.1
O=c1c(I)coc2ccc(Cl)cc12 [CBK005364]	93.9
S=C(Nc1ccccc1)c1ccccc1 [CBK005397]	100
COc1ccccc1NC(=O)N(CC(C)C)CC(C)C [CBK005456]	102
Cc1cc(C)[n+](-c2ccccc2O)c(C)c1 [CBK005458G]	116
Cn1ccnc1[S+]([O-])Cc1nc2ccccc2s1 (stereo not shown) [CBK005549]	91.5
Cc1nn(Cc2nnc(SCC(=O)C(C)(C)C)o2)c(C)c1Br [CBK005646]	92.1
CCOC(=O)C1=C(Nc2ccc(O)cc2)C(=O)N(C(C)(C)C)C1 [CBK005677]	83
CSCCN(CC(=O)O)Cc1ccccc1 [CBK005712]	91.1
COC(=O)c1sccc1-c1ccc(C2C3=C(CCCC3=O)NC3=C2C(=O)CCC3)o1 [CBK005748]	92.3
COc1ccc(-c2c(C)nn(-c3ccc(Cl)nn3)c2C)c(C(=O)O)c1 [CBK005774]	107
CN(C)CC(c1ccccc1)c1nnc2n1-c1ccc(S(C)(=O)=O)cc1C(c1ccccc1)=NC2 (stereo not shown) [CBK005856G]	102
CN(C)C[C@@H]1Cc2cccc3cccc(c23)[C@@H]1O [CBK005877C]	111
O/N=C/Nc1nccc(-c2cc(Cl)sc2Cl)n1 [CBK005934]	87.5
Cc1nc(C)c(-c2cnc(NS(=O)(=O)c3ccc(Cl)cc3)nc2)s1 [CBK005935]	86.9
CSc1nc(N)n(-c2cc(C(F)(F)F)cc(C)n2)n1 [CBK005941]	89.9

Same assay, conditions: human, hela cells, % viability, bulk resorufin, single well

Compound	viability at 28.5 h, 10 µM [%]
Cc1ccc2[nH]cc(CCN)c2c1 [CBK004365]	103
